Test results as given in patent US9920357B2, “Systems and methods for identifying cosmetic agents for hair/scalp care compositions” (The Procter & Gamble Company, priority 2012, dated 2018).

Experiments:
hair count = assay: Clinical studies of hair count; assay type: in vivo
MAOB [1] = biological target: T1, MAOB (Homo sapiens, UniProt P27338); assay: MAOB enzyme inhibition assay; assay type: biochemical; details: active = >=40% inhibition and dose response
T1 sequence (P27338 1-520): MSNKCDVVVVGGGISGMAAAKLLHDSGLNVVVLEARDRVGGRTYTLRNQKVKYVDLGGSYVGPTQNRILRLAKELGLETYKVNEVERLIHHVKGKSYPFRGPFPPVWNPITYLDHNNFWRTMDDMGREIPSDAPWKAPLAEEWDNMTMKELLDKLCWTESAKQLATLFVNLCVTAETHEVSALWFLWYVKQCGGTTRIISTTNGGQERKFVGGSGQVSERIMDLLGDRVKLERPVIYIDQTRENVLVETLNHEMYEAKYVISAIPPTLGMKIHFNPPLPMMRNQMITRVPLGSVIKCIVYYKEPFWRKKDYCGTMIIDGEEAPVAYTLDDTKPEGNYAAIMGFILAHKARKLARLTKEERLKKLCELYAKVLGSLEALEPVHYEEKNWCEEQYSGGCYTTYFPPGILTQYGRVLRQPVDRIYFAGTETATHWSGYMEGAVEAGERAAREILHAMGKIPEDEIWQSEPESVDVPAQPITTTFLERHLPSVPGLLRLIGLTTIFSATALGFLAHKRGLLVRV
Experimental: (§1) Affy signatures yielded 60 materials that were plated and provided for evaluation in a MAOB enzyme inhibition assay and 46 pure material were tested in a MAOB reporter assay.

MAOB [2] = assay: MAOB reporter assay; assay type: cell-based; details: active = >=60% inhibition and dose response
Experimental: as §1

Compound | hair count (hair count) | activity in MAOB enzyme inhibition assay (MAOB [1]) | activity in MAOB reporter assay (MAOB [2])
O=c1cc(-c2ccc(O)cc2)oc2cc(O)cc(O)c12 [Apigenin] | significant hair count benefit |  | 
CCN(CC)CCCC(C)Nc1c2ccc(Cl)cc2nc2ccc(OC)cc12 (stereo not drawn) [quinacrine] |  | active and hit | active and hit
